Key:
Carbonic anhydrase 2 = Carbonic anhydrase 2 (Homo sapiens, UniProt P00918)
Description: Inhibitory activity against human carbonic anhydrase II

Carbonic anhydrase 1 = Carbonic anhydrase 1 (Homo sapiens, UniProt P00915)
Description: Inhibitory activity against human carbonic anhydrase I

Carbonic anhydrase 4 = target: T1, Carbonic anhydrase 4 (Bos taurus, UniProt Q95323)
T1 sequence (Q95323 whole entry): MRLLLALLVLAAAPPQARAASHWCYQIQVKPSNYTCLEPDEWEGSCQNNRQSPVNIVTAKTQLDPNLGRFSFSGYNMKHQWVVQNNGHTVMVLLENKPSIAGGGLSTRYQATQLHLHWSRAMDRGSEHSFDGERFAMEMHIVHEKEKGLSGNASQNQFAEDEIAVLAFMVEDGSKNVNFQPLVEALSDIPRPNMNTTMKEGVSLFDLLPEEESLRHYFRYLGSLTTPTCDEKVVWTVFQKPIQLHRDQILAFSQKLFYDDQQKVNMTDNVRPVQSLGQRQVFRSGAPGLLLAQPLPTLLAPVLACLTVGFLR
Description: Inhibitory activity against carbonic anhydrase IV from bovine lung microsomes

Carbonic anhydrase 9 = Carbonic anhydrase 9 (Homo sapiens, UniProt Q16790)
Description: Inhibitory activity against human carbonic anhydrase IX

Chain of Carbonic anhydrase 1 (P00915 whole entry): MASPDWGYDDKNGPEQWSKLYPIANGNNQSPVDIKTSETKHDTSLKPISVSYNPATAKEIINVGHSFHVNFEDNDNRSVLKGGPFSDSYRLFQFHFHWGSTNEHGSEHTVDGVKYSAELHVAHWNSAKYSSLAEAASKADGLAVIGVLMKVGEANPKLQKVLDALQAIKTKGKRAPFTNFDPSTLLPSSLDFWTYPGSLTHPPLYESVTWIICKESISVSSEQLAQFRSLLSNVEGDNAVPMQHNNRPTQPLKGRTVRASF

SMILES	Ki (Carbonic anhydrase 2) [nM]	Ki (Carbonic anhydrase 1) [µM]	Ki (Carbonic anhydrase 4) [nM]	Ki (Carbonic anhydrase 9) [nM]
CC(C)c1cc(-c2ccccc2)cc(C(C)C)[n+]1CCc1ccc(S(N)(=O)=O)cc1	21	6		
NS(=O)(=O)c1ccc(C[n+]2c(-c3ccccc3)cccc2-c2ccccc2)cc1		280	1950	
CC(C)c1cc(-c2ccccc2)cc(-c2ccccc2)[n+]1-c1ccc(S(N)(=O)=O)cc1			2100	> 500
Cc1cc(C)[n+](-c2ccc(S(N)(=O)=O)cc2)c(C)c1		10		
CCc1cc(-c2ccccc2)cc(CC)[n+]1-c1ccc(S(N)(=O)=O)cc1	60	6		
Cc1cc(C)[n+](CCc2ccc(S(N)(=O)=O)cc2)c(C)c1C		2	21	8
CCCCc1cc(-c2ccccc2)cc(-c2ccccc2)[n+]1Cc1ccc(S(N)(=O)=O)cc1	595	300	2100	135
CC(C)c1cc(-c2ccccc2)cc(-c2ccccc2)[n+]1Cc1ccc(S(N)(=O)=O)cc1		112		
Cc1cc(C)[n+](-c2ccc(S(N)(=O)=O)cc2)c(C)c1C		5		
CCCc1cc(-c2ccccc2)cc(CCC)[n+]1CCc1ccc(S(N)(=O)=O)cc1		7		
CCc1cc(-c2ccccc2)cc(CC)[n+]1CCc1ccc(S(N)(=O)=O)cc1		1	21	8
Cc1cc(C)[n+](CCc2ccc(S(N)(=O)=O)cc2)c(C(C)C)c1		2		
Cc1cc(-c2ccccc2)cc(C)[n+]1Cc1ccc(S(N)(=O)=O)cc1		4	70	
CCc1cc(-c2ccccc2)cc(-c2ccccc2)[n+]1Cc1ccc(S(N)(=O)=O)cc1	314	42	983	79
NS(=O)(=O)c1ccc(C[n+]2c(-c3ccccc3)cc(-c3ccccc3)cc2-c2ccccc2)cc1		280	1960	120
CC(C)c1cc(-c2ccccc2)cc(C(C)C)[n+]1-c1ccc(S(N)(=O)=O)cc1		5		
Cc1cc(C)[n+](Cc2ccc(S(N)(=O)=O)cc2)c(C)c1	50	7		

Second part, the molecule after the results:

Ki (Carbonic anhydrase 2) [nM]	Ki (Carbonic anhydrase 1) [µM]	Ki (Carbonic anhydrase 4) [nM]	Ki (Carbonic anhydrase 9) [nM]	SMILES
	10			CCCc1cc(-c2ccccc2)cc(CCC)[n+]1-c1ccc(S(N)(=O)=O)cc1
50	6			Cc1cc(C)[n+](Cc2ccc(S(N)(=O)=O)cc2)c(C(C)C)c1
	3			Cc1cc(C)[n+](Cc2ccc(S(N)(=O)=O)cc2)c(C)c1C
	112			CCCc1cc(-c2ccccc2)cc(-c2ccccc2)[n+]1CCc1ccc(S(N)(=O)=O)cc1
			> 500	CCCCc1cc(-c2ccccc2)cc(-c2ccccc2)[n+]1-c1ccc(S(N)(=O)=O)cc1
60	7			Cc1cc(-c2ccccc2)cc(C)[n+]1-c1ccc(S(N)(=O)=O)cc1
	1			Cc1cc(-c2ccccc2)cc(C)[n+]1CCc1ccc(S(N)(=O)=O)cc1
			> 500	CC(C)(C)c1cc(-c2ccccc2)cc(-c2ccccc2)[n+]1Cc1ccc(S(N)(=O)=O)cc1
	40			CCc1cc(-c2ccccc2)cc(-c2ccccc2)[n+]1CCc1ccc(S(N)(=O)=O)cc1
			> 500	CC(C)(C)c1cc(-c2ccccc2)cc(-c2ccccc2)[n+]1CCc1ccc(S(N)(=O)=O)cc1
		144		Cc1cc(C(C)C)[n+](Cc2ccc(S(N)(=O)=O)cc2)c(C(C)C)c1
	40			Cc1cc(-c2ccccc2)cc(-c2ccccc2)[n+]1-c1ccc(S(N)(=O)=O)cc1
	290		> 500	NS(=O)(=O)c1ccc(-[n+]2c(-c3ccccc3)cc(-c3ccccc3)cc2-c2ccccc2)cc1
20	3	70		Cc1cc(C(C)C)[n+](CCc2ccc(S(N)(=O)=O)cc2)c(C(C)C)c1
	290		120	CCCCc1cc(-c2ccccc2)cc(-c2ccccc2)[n+]1CCc1ccc(S(N)(=O)=O)cc1
21	2			CCc1cc(-c2ccccc2)cc(CC)[n+]1Cc1ccc(S(N)(=O)=O)cc1
			> 500	CCCc1cc(-c2ccccc2)cc(-c2ccccc2)[n+]1-c1ccc(S(N)(=O)=O)cc1
